# “And” between values parts separate entries of the source, which are not always exact repeats. Identical values can stand only once. Like-named read-outs stand apart in the source and are kept apart here.
# Assays:
# [1] = mice; cited from earlier work
# UM-SCC-22A cells = test: MTT cell survival assay and isobologram studies; format: cell-based, human
# [2] = Solubility of ceramides and ceramidoids in water
# [3] = system: MCF7 breast carcinoma cells; test: Cell proliferation and viability, Trypan blue exclusion assay; format: cell-based; conditions: for IC50: 48 h treatment, read-out: IC50, inhibitory effect on MCF7 cell growth
# Method: FIGS. 5A-5F show the dose dependent effects of CCPS analogs on survival of MCF7 breast carcinoma cells in comparison to the activity of D-e-C6-ceramide, which is commonly used as a model of ceramide action. Cell proliferation and cell viability were determined by Trypan blue exclusion assay. These assays were performed using duplicate samples in two or three independent experiments.
# Cell Proliferation: Cells were seeded into plates at a density of approx. 50% corresponding to 1×10^6 cells, in 10 ml of 10% FCS and after an over night incubation the cells were treated with LCL compounds at concentration 0-20 μM in ethanol (ethanol level was kept below 0.1%) and the changes in cell numbers after 48 h were determined and expressed as a percentage of the untreated controls.
# Briefly, media was removed, cells were washed twice with PBS, detached using 1% Trypsin and centrifuged at 800 rpm. Cell pellets were resuspended in PBS and Trypan blue (Sigma Chemicals, St. Louis, Mo., USA) was added (1:1 dilution). Under light microscope, the percentage of unstained and stained cells was assessed.
# To examine the anticancer activity of CCPS analogs of the invention, their inhibitory effect on MCF7 breast carcinoma cells were analyzed and compared to the activity of D-e-C6-ceramide, which is commonly used as a model of action for ceramides. Cell proliferation and cell viability were determined by Trypan blue exclusion assay.
# [4] = system: isolated rat liver mitochondria; test: Mitochondrial permeabilization (ΔΨ, large-amplitude swelling); conditions: for mitochondrial large-amplitude swelling (in words): 60 μM
# Method: Effects of ceramides on ΔΨ value (17A) and mitochondrial large-amplitude swelling (17B, 17C) Mitochondria were incubated at the condition described under Section 9.1 except that 2 μM of TPP+ was present from the beginning of the experiment. Alamethicin (ALA), a pore-forming peptide (7 μg/mg protein), was added as indicated to induce permeabilization and determine the full extend of potential changes in the parameters of interest. Where indicated ceramides at 40 μM were present from the beginning of the experiment. FIGS. 17A and 17B show time-courses of ceramides effect on ΔΨ and mitochondrial swelling. […] Degree of mitochondrial swelling was determined 30 min after ceramide treatment.
# Mitochondria were incubated at the condition described under Section 9.1 except that 2 μM of TPP+ was present from the beginning of the experiment. Trace 2, no addition. […] Trace 4, FCCP at 1 μM was present from the beginning of the experiment. […] Alamethicin (ALA), a pore-forming peptide (7 μg/mg protein), was added as indicated to induce permeabilization and determine the full extent of potential changes in the parameters of interest.
# Mitochondria were incubated at the condition described under “Experimental procedures”. […] Trace 2, DCCD at 100 μM was added from the beginning of the experiment. Alamethicin (ALA) was added as indicated to determine full degree of permeabilization. […] The curve was generated from experiments similar to that depicted in traces 1 and 2 with indicated concentration of DCCD present from the beginning of the experiment.
# Effect of hydrophobic cations on the time-course of mitochondrial large-amplitude swelling. Alamethicin (ALA), a pore-forming peptide (7 μg/mg protein), was added as indicated to induce permeabilization and determine the full extent of mitochondrial swelling. Where indicated cations at 60 μM were added to the incubation medium. Trace 1, no additions; trace 2, C2 pyridinium ceramide; trace 3, TMRM; trace 4, cetyl pyridinium; trace 5, TPP^+. Trace 3 was corrected for the absorbance of TMRM.
# Time-course (A) and dose-response (B) of the effect of C6 pyridinium dihydroceramide on mitochondrial large-amplitude swelling. Mitochondria were incubated at the condition described under “Experimental procedures”. Alamethicin (ALA), a pore-forming peptide (7 μg/mg protein), was added as indicated to induce permeabilization and determine the full extent of mitochondrial swelling. Where indicated ceramides at 30 μM were added to the incubation medium. […] Trace 1, no additions; trace 2, C6 pyridinium ceramide; trace 3, C6 pyridinium dihydroceramide. […] Degree of mitochondrial swelling was determined 15 min after ceramide treatment. Trace 1, C6 pyridinium dihydroceramide; trace 2, C6 pyridinium ceramide.
# MCF7 cells = conditions: 5 μM
# Method: FIGS. 4A-4C show the cellular levels of CCPS analogs. MCF 7 cells were treated with 5 μM concentration of CCPS analogs over the time and cellular level of the nonmetabolized CCPSs was measured by MS methodology as shown under Experimental. Results are expressed as % of concentration applied.
# A parallel set of cells was used to determine cell proliferation and to prepare lipid extracts for MS analysis.
# Briefly, for the indicated points, media was removed, cells were washed twice with PBS, scraped into cold PBS (2×1.0 ml), transferred to glass vials and centrifuged for 5 min at 800 rpm. Cell pellets corresponding to ˜1×10^6 cells, were fortified with the internal standards IS (C17 base D-erythro-sphingosine: 17Sph, C17 sphingosine-1-phosphate: 17Sph-1P, N-palmitoyl-D-erythro-C13 sphingosine: 13CC16-Cer and N-heptadecanoyl-D-erythro-C17shingosine: 17CC17-Cer) and extracted (2×2 ml) into a one-phase solvent system with ethyl acetate/iso-propanol/water (60/30/10 v/v). One ml of this extract was used for Pi determination after lipid re-extraction by the Bligh and Dyer method. Remaining lipid extract was evaporated, reconstituted in 100 μl of methanol, and samples were injected on the Surveyor/TSQ 7000 LC/MS system and gradient eluted from the BDS Hypersil C8, 150×3.2 mm, 3 μm particle size column, with 1.0 mM methanolic ammonium formate/2 mM aqueous ammonium formate mobile phase system. Peaks corresponding to the target analytes and IS were collected and processed using the Xcalibur software system.
# Cellular level of CCPS analogs was established by MS methodology.
# [5] = system: isolated rat liver mitochondria; test: Accumulation / binding in isolated mitochondria; conditions: at 4 min
# Method: FIG. 16. […] Bar 2 and 4 (+FCCP), ΔΨ was dissipated by addition of FCCP at 1 μM plus antimycin A at 0.5 μg/mg protein from the beginning of the experiment. Results are expressed as mean+SEM of n=3, *p=0.01 versus control.
# FIG. 23. […] Trace 3 was corrected for the absorbance of TMRM.
# Preparation of mitochondria from rat liver.
# Mitochondrial incubation medium.
# Analysis of ceramides by mass spectroscopy (MS).
# [6] = aqueous conditions at pH 4.5, 7.5 and 8.5 over 48 hrs
# [7] = Homo sapiens, read-out: IC50 of chemotherapeutic agents
# [8] = UM-SCC-22A, 48 hr, read-out: IC50, cell growth
# [9] = UM-SCC-22A, 96 hr, DMEM, read-out: IC50, cell growth
# [10] = Homo sapiens, UM-SCC-22A, MTT, read-out: IC50 of chemotherapeutic agents
compound,measurement,setting,value
"O=c1[nH]cc(F)c(=O)[nH]1 [5-FU, 5-fluorouracil, reference compound]",MTD of reference drugs (known),[1],25 mg/kg
same,IC50,UM-SCC-22A cells; [7],1000 to 100000 nM
"CCCCCCCCCCCCC/C=C/[C@@H](O)[C@H](CO)NC(C)=O [C2-Cer, D-erythro-C2-ceramide, reference compound]",Solubility at 37° C.,[2],0.01 mg/mL
same,Solubility at 37° C. ([mM]),[2],(0.029) mM
same,inhibitory effect on MCF7 cell growth (in words),[3]; 48 h,inactive
"CCCCCCCCCCCCC/C=C/[C@@H](O)[C@H](CO)NC(=O)CCCCCCCCCCCCCCC [C16-Cer, D-erythro-C16-ceramide, reference compound]",Solubility at 37° C.,[2],0.0003 mg/mL
same,Solubility at 37° C. ([mM]),[2],(0.0005) mM
"N.N.[Cl][Pt][Cl] [CSP, cisplatinum]",MTD of reference drugs (known),[1],9 mg/kg
"COc1cccc2c1C(=O)c1c(O)c3c(c(O)c1C2=O)C[C@@](O)(C(C)=O)C[C@@H]3O[C@H]1C[C@H](N)[C@H](O)[C@H](C)O1 [DNR, daunorubicin, reference compound]",IC50,UM-SCC-22A cells; [7],100 to 250 nM
"COc1cccc2c1C(=O)c1c(O)c3c(c(O)c1C2=O)C[C@@](O)(C(=O)CO)C[C@@H]3O[C@H]1C[C@H](N)[C@H](O)[C@H](C)O1 [DOX, doxorubicin]",MTD of reference drugs (known),[1],1 to 2 mg/kg and 2 mg/kg
same,IC50,UM-SCC-22A cells; [7],100 to 250 nM
"CCCCCCCCCCCCC/C=C/[C@H](O)[C@H](CO)NC(=O)CCCCCCCCCCCCCCC[n+]1ccccc1.[Br-] [LCL87, L-threo-2-N-[16′-(1″-Pyridinium)-hexadecanoyl]-sphingosine Bromide]",inhibitory effect on MCF7 cell growth (in words),[3]; 48 h,"similar, concentration dependent (1.0-10.0 μM) inhibitory effect on cell growth"
same,IC50,UM-SCC-22A cells; [8],~1000 nM
same,IC50,UM-SCC-22A cells; [9],~300 nM
CCCCCCCCCCCCCC=CC(O)C(CO)NC(=O)CCCCCCCCCCC[n+]1ccccc1 (stereo not shown) [LCL89],IC50,UM-SCC-22A cells; [8],~1000 nM
same,IC50,UM-SCC-22A cells; [9],~300 nM
"CCCCCCCCCCCCCCC[C@@H](O)[C@H](CO)NC(=O)CCCCC[n+]1ccccc1.[Br-] [LCL143, D-erythro-2-N-[6′-(1″-Pyridinium)-hexanoyl]-4,5-dihydrosphingosine Bromide]",lag period of the induction of mitochondrial swelling versus C6-pyridinium-ceramide,[4]; 30 μM,three fold increase in the lag period
same,"Intracellular level, % of concentration applied",MCF7 cells; 1 h,15%
same,"Cellular level, % of concentration applied",MCF7 cells; 5 h,13%
same,"Cellular level, % of concentration applied",MCF7 cells; 24 h,35%
same,binding to mitochondria,[5]; 30 μM,9.8±0.7 nmol/mg protein
same,IC50,[3],5 µM and 5.02 µM
"CCCCCCCCCCCCC/C=C/[C@@H](O)[C@H](CO)NC(=O)C[n+]1ccccc1.[Br-] [LCL150, D-erythro-2-N-[2′-(1″-Pyridinium)-acetyl]-sphingosine Bromide]",effect on ΔΨ and mitochondrial swelling (in words),[4]; 40 μM,only minor changes in the magnitude of mitochondrial swelling and the value of ΔΨ
same,mitochondrial large-amplitude swelling (in words),[4],failed to induce the same degree of swelling
same,"Cellular level, % of concentration applied",MCF7 cells; 5 h,~17%
same,"Cellular level, % of concentration applied",MCF7 cells; 24 h,50%
same,binding to mitochondria,[5]; 60 μM,29.8 nmol/mg protein
same,IC50,[3],8 µM
same,Stability (decomposition) by MS,[6],no evidence of their decomposition
same,effect on cell growth (in words),"UM-SCC-22A cells; UM-SCC-22A, 96 hr",did not exert a significant effect on cell growth
"CCCCCCCCCCCCC/C=C/[C@@H](O)[C@H](CO)NC(=O)CCCCC[n+]1ccc(C=Cc2ccc(N(C)C)cc2)cc1 [LCL186, D-erythro-2-N-[6′-[1″-[4′″-[(4″″-N,N-Dimethylamino)styryl]-pyridinium]-hexanoyl]]-sphingosine Bromide]",IC50,[3],~4 µM
"CCCCCCCCCCCCC/C=C/[C@@H](O)[C@H](CO)NC(=O)c1ccc[n+](CCCCCCCC)c1.[Br-] [LCL275, D-erythro-2-(1′-Octylnicotinoyl)-sphingosine Bromide]",Solubility at 22° C.,[2],62 mg/mL
same,Solubility at 22° C. ([mM]),[2],(103) mM
same,Solubility at 37° C.,[2],120 mg/mL
same,Solubility at 37° C. ([mM]),[2],(200) mM
same,IC50,[3]; listed as LCL-275,15 µM
same,IC50,[3],~20 µM
"CCCCCCCCCCCCC/C=C/[C@@H](O)[C@H](CO)NC(=O)CCc1ccc[n+](CCCC)c1 [LCL277, D-erythro-2-N-[3′-[3″-(1″-Butyl)-pyridinium]-propionoyl]-sphingosine Bromide]",IC50,[3]; listed as LCL-277,13 µM
same,IC50,[3],8.5 µM
"CCCCCCCCCCCCCCC[C@@H](O)[C@H](CO)NC(=O)C[n+]1ccccc1.[Br-] [LCL319, D-erythro-2-N-[2′-(1″-Pyridinium)-acetyl]-4,5-dihydrosphingosine Bromide]","Cellular level, % of concentration applied",MCF7 cells; 5 h,27%
same,"Cellular level, % of concentration applied",MCF7 cells; 24 h,52%
same,Solubility at 22° C.,[2],0.9 mg/mL
same,Solubility at 22° C. ([mM]),[2],(1.8) mM
same,Solubility at 37° C.,[2],45 mg/mL
same,Solubility at 37° C. ([mM]),[2],(90) mM
same,inhibition of MCF7 cell growth,"[3]; 10 μM, 48 h",15%
same,IC50,[3],12.5 µM
"CN(Cc1cnc2nc(N)nc(N)c2n1)c1ccc(C(=O)N[C@@H](CCC(=O)O)C(=O)O)cc1 [MTX, methotrexate, reference compound]",IC50,UM-SCC-22A cells; [10],100 to 250 nM
"CC(=O)O[C@H]1C(=O)[C@@]2(C)[C@H]([C@H](OC(=O)c3ccccc3)[C@]3(O)C[C@H](OC(=O)[C@H](O)[C@@H](NC(=O)c4ccccc4)c4ccccc4)C(C)=C1C3(C)C)[C@]1(OC(C)=O)CO[C@@H]1C[C@@H]2O [PAX, paclitaxel, reference compound]",IC50,UM-SCC-22A cells; [10],1000 to 100000 nM
"COC(=O)c1ccccc1-c1c2ccc(=[N+](C)C)cc-2oc2cc(N(C)C)ccc12 [TMRM, reference compound]",mitochondrial large-amplitude swelling (in words),[4],fail to induce large-amplitude swelling
same,binding to mitochondria,[5]; 60 μM,50±2.6 nmol/mg protein
"c1ccc([P+](c2ccccc2)(c2ccccc2)c2ccccc2)cc1 [TPP^+, reference compound]",mitochondrial large-amplitude swelling (in words),[4],fail to induce large-amplitude swelling
"CCCCCCCCCCCCCCCC[n+]1ccccc1 [cetylpyridinium bromide, Cetylpyridinium bromide (CPB) monohydrate, reference compound]",mitochondrial large-amplitude swelling (in words),[4],only moderate mitochondrial swelling
D-threo-2-N-[6′-(1″-Pyridinium)-hexanoyl]-sphingosine Bromide [LCL272],inhibitory effect on MCF7 cell growth (in words),[3]; 48 h,caused inhibitory effect on MCF7 cell growth
L-erythro-2-N-[6′-(1″-Pyridinium)-hexanoyl]-sphingosine Bromide [LCL187],inhibitory effect on MCF7 cell growth (in words),[3]; 48 h,caused inhibitory effect on MCF7 cell growth

# Source: patent publication US8093393B2, “Cationic ceramides, and analogs thereof, and their use for preventing or treating cancer” (MUSC Foundation for Research Development, priority 2004, dated 2012)
